Test [1] concerns the target T1, human CGRP receptor (SK-N-MC cells) (Homo sapiens, UniProt O60894+Q16602).
T1 construct: SK-N-MC cells that endogenously express the human CGRP receptor; endogenous in cells; host or cells: SK-N-MC cells
Kind of test: Schild analysis of CGRP stimulated cAMP production. The conditions noted are these: for slope: Schild plot slope. The class given is cell-based. On the procedure: Functional Antagonism. Antagonism of the compounds of invention was determined by measuring the formation of cyclic AMP (adenosine 3′5′-cyclic monophosphate) in SK-N-MC cells that endogenously express the human CGRP receptor. CGRP receptor complex is coupled with Gs protein and CGRP binding to this complex leads to the cyclic AMP production via Gs—dependent activation of an adenylate cyclase (Juaneda C et al., TiPS, 2000; 21:432-438; incorporated by reference herein). Consequently, CGRP receptor antagonists inhibit CGRP-induced cyclic AMP formation in SK-N-MC cells (Doods H et al., Br J Pharmacol, 2000; 129(3):420-423); incorporated by reference herein). For cyclic AMP measurements SK-N-MC cells were incubated with 0.3 nM CGRP alone or in the presence of various concentrations of the compounds of invention for 30 min at room temperature. Compounds of invention were pre-incubated with SK-N-MC cells for 15 min before the addition of CGRP to allow receptor occupancy (Edvinsson et al., Eur J Pharmacol, 2001, 415:39-44; incorporated by reference herein). Cyclic AMP was extracted using the lysis reagent and its concentration was determined by radioimmunoassay using RPA559 cAMP SPA Direct Screening Assay Kit (Amersham Pharmacia Biotech). IC50 values were calculated using Excel fit.
Schild Analysis. Schild analysis can be used to characterize the nature of antagonism of the compounds of invention. The dose response of CGRP stimulated cAMP production was generated either with CGRP alone, or in the presence of various concentrations of compounds of invention. The antagonist dose is plotted as X against the dose ratio (defined as IC50 of agonist with the presence of the compounds divided by the IC50 of the agonist alone) minus 1 as Y. Linear regression was then performed with both X and Y axis log-transformed. […] Kb is the dissociation constant of the antagonist.
Background: cAMP levels reflect the balance of adenylyl cyclase and phosphodiesterase activity.

The target in test [2] is T1, human CGRP receptor (SK-N-MC cells). Kind of test: Cyclic AMP Assay, functional antagonism of CGRP-induced cyclic AMP formation. The class given is cell-based. An outline of the steps: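 SK-N-MC cells, which endogenously express human CGRP receptor, stimulated with 0.3 nM CGRP with or without compound for 30 min at room temperature. Cellular cAMP extracted by lysis and quantified by SPA radioimmunoassay; IC50 from inhibition of CGRP-induced cAMP.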

Test [3] concerns the target T2, CGRP receptor (SK-N-MC cell membranes) (Homo sapiens, UniProt O60894+Q16602).
T2 construct: endogenous in cells; host or cells: SK-N-MC cells (membrane homogenate)
Nature of the test: CGRP Binding Assay ([125I]-CGRP radioligand binding, SK-N-MC homogenate). To be noted: displacement of [125I]-CGRP, SK-N-MC homogenate; read-out: CGRP binding IC50. Background: Loss of bound radioactivity is the signal in a displacement assay; it reports binding, not function.

Test [4] has as its system human cerebral vessels (CGRP-induced dilation). Kind of test: Ex Vivo Human Cerebral Artery Assay, reversal of CGRP-induced relaxation. To be noted: reversal of 1 nM hCGRP-induced relaxation, vessels pre-contracted with 10 mM KCl. From the text:
Rationale and Overview. To provided direct evidence of the ability for novel compounds to reverse CGRP-induced dilation in human cerebral vessels, an ex vivo assay was design. Briefly, isolated vessel rings were mounted in a tissue bath where vessels were pre-contracted with potassium chloride (KCl) and fully dilated with hCGRP, then this relaxation was reversed by the cumulative addition of CGRP-receptor antagonists (complete details follow).
Tissue Samples. Autopsy samples of human arteries were obtained from vendors (ABS Inc. or NDRI). All vessels were transported on ice-cold HEPES buffer (composition in mM: NaCl 130, KCl 4, KH2PO4 1.2, MgSO4 1.2, CaCl2 1.8, Glucose 6, NaHCO3 4, HEPES 10, EDTA 0.025). Upon receipt, the vessels were placed in cold Kreb's buffer (composition in mM: NaCl 118.4, KCl 4.7, KH2PO4 1.2, MgSO4 1.2, CaCl2 1.8, Glucose 10.1, NaHCO3 25) saturated with carbogen (5% CO2 and 95% oxygen).
Isolated Tissue Baths. The vessels were cleaned of connective tissues and cut into cylindrical segments of 4-5 mm in length. The vessels were then mounted in tissue baths between two stainless steel hooks; one of which is fixed and the other of which was connected to a force displacement transducer. The vessel tension was continuously recorded using a data acquisition system (Powerlab, ADInstruments, Mountain View, Calif.) connected to the transducer. The tissue baths containing Krebs buffer and mounted vessels were temperature (37° C.) and pH (7.4) controlled with continuous bubbling of carbogen. The artery segments were allowed to equilibrate for about 30-45 min until a stable resting tone was achieved. Prior to the assay, vessels were primed (conditioned) with 100 mM KCl and subsequently washed. The vessels were pre-contracted with 10 mM KCl and fully dilated with 1 nM hCGRP. Concentration-response curves to CGRP-receptor antagonists were performed by the cumulative addition of drugs in half log units in fully dilated vessels. At each concentration, the effects of the drugs were expressed as % reversal of CGRP-induced relaxation in each vessel. The actual assay and data analysis were performed for each vessel individually, fitting the concentration-response data to a four parameter logistic function by non-linear regression analysis, to estimate the EC50 values.

Setting [5] is: Schild analysis, dissociation constant of the antagonist, read-out: Kb.
[6] abbreviates: SK-N-MC cells, 0.3 nM CGRP, read-out: cAMP Function IC50.

The structures appear in SMILES notation. Read-outs that look alike come from different tables or passages of the source. A value given as a limit tells only on which side of the number the result lay.

T1 sequence (Q16602 23-461): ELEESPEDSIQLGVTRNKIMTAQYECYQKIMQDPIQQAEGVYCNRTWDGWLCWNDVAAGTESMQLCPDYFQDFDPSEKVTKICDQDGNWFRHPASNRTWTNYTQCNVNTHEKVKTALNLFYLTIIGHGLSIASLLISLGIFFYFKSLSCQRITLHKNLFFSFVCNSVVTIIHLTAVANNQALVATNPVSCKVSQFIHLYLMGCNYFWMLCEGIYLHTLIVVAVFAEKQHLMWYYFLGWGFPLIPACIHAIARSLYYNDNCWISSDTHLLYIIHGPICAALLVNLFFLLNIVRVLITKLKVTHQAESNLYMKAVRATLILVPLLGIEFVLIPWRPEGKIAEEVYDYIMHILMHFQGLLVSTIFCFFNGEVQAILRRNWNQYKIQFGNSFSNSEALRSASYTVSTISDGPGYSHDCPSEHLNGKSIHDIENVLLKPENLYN
T1 sequence (O60894 27-148): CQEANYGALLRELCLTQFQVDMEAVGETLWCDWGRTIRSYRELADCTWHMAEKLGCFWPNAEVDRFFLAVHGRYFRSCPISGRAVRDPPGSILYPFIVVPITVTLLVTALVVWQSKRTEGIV
T2 sequence (Q16602 23-461): as the sequence (Q16602 23-461) above
T2 sequence (O60894 27-148): as the sequence (O60894 27-148) above

As usually defined, the IC50 is the concentration that inhibits the measured activity by half. What is called EC50 is the midpoint of the concentration-response curve. Consider `Cc1cc(CC(CC(=O)N2CCC3(CC2)OC(=O)Nc2ccccc23)C(=O)N2CCC3(CC2)OCCO3)cc2cn[nH]c12` (racemic) [Example 71, (±)-1-(1,4-Dioxa-8-aza-spiro[4.5]dec-8-yl)-2-(7-methyl-1H-indazol-5-ylmethyl)-4-[1′,2′-dihydro-2′-oxospiro-[4H-3′,1-benzoxazine-4,4′-piperidinyl]-butane-1,4-dione], for which, in test [1], the Kb is 2 nM. The compound further showed a slope in test [1] of 0.87. For the same compound, the IC50 in test [2] and in test [3] was below 10 nM in each case. In addition, the EC50 in test [4] was below 10 nM.

`O=C(NC(Cc1cc(Cl)c2[nH]ncc2c1)C(=O)N1CCC(N2CCCCC2)CC1)N1CCC(N2Cc3ccccc3NC2=O)CC1` (racemic) [Example 43, (±)-4-(2-Oxo-1,4-dihydro-2H-quinazolin-3-yl)-piperidine-1-carboxylic acid[2-[1,4′]bipiperidinyl-1′-yl-1-(7-chloro-1H-indazol-5-ylmethyl)-2-oxo-ethyl]-amide]: the Kb in test [1] (setting [5]) worked out at 0.018 nM. In test [1], this compound showed a slope of 1.2. The half-maximal inhibitory concentration (IC50) in test [2] (setting [6]) and in test [3] was below 10 nM in each case. Further, in test [4], the EC50 is below 10 nM.

On to `O=C(N[C@H](Cc1ccc2[nH]c(=O)oc2c1)C(=O)N1CCC(N2CCCCC2)CC1)N1CCC(N2Cc3ccccc3NC2=O)CC1` [Example 47, (R)-4-(2-Oxo-1,4-dihydro-2H-quinazolin-3-yl)-piperidine-1-carboxylic acid[2-[1,4′]bipiperidinyl-1′-yl-2-oxo-1-(2-oxo-2,3-dihydro-benzooxazol-6-ylmethyl)-ethyl]-amide], for which, in test [1] (setting [5]), the Kb turned out to be 0.1 nM. This compound came in with a slope in test [1] of 0.93. Moreover, the IC50 in test [2] (setting [6]) and in test [3] was below 10 nM in each case. Also, the EC50 in test [4] is below 10 nM.

In test [1], `Cc1cc(CC(CC(=O)N2CCC(N3Cc4ccccc4NC3=O)CC2)C(=O)N2CCC3(CC2)OCCO3)cc2cn[nH]c12` (racemic) [Example 70, (±)-1-(1,4-Dioxa-8-aza-spiro[4.5]dec-8-yl)-2-(7-methyl-1H-indazol-5-ylmethyl)-4-[4-(2-oxo-1,4-dihydro-2H-quinazolin-3-yl)-piperidin-1-yl]-butane-1,4-dione] showed a slope of 0.71. In addition, the half-maximal inhibitory concentration (IC50) in test [2] and in test [3] was below 10 nM in each case. Further, the half-maximal effective concentration (EC50) in test [4] is below 10 nM.

Regarding `Cc1cc(CC(NC(=O)N2CCC(N3Cc4ccccc4NC3=O)CC2)C(=O)N2CCCCC2)cc2cn[nH]c12` (racemic) [Example 17, (±)-4-(2-Oxo-1,4-dihydro-2H-quinazolin-3-yl)-piperidine-1-carboxylic acid[1-(7-methyl-1H-indazol-5-ylmethyl)-2-oxo-2-piperidin-1-yl-ethyl]-amide], in test [1] (setting [5]), the Kb stood at 1.1 nM. Also, the slope in test [1] was found to be 0.92. Also, the half-inhibitory concentration (IC50) in test [2] (setting [6]) and in test [3] was below 10 nM in each case. In addition, in test [4], the EC50 is below 10 nM.

Regarding `Cc1cc(CC(NC(=O)N2CCC(N3Cc4ccccc4NC3=O)CC2)C(=O)N(C)C)cc2cn[nH]c12` (racemic) [Example 18, (±)-4-(2-Oxo-1,4-dihydro-2H-quinazolin-3-yl)-piperidine-1-carboxylic acid[1-dimethylcarbamoyl-2-(7-methyl-1H-indazol-5-yl)-ethyl]-amide], in test [1] (setting [5]), the Kb came to 1 nM. In test [1], the slope is 0.8. For the same compound, the figures for the 50% inhibitory concentration (IC50) in test [2] (setting [6]) and in test [3] were 10 to 100 nM and below 10 nM, respectively. The EC50 in test [4] is below 10 nM.

Compound `CCc1cc(CC(NC(=O)N2CCC(N3Cc4ccccc4NC3=O)CC2)C(=O)N2CCC(N3CCCCC3)CC2)cc2cn[nH]c12` (racemic) [Example 45, (±)-4-(2-Oxo-1,4-dihydro-2H-quinazolin-3-yl)-piperidine-1-carboxylic acid[2-[1,4′]bipiperidinyl-1′-yl-1-(7-ethyl-1H-indazol-5-ylmethyl)-2-oxo-ethyl]-amide] returned a slope in test [1] of 1.4. For the same compound, in test [3], the half-inhibitory concentration (IC50) is below 10 nM.

In the case of `O=C(NC(Cc1ccc2[nH]ccc2c1)C(=O)N1CCC(N2CCCCC2)CC1)N1CCC(n2c(=O)[nH]c3ccccc32)CC1` (racemic) [Example 3, (±)-4-(2-Oxo-2,3-dihydro-benzoimidazol-1-yl)-piperidine-1-carboxylic acid[2-[1,4′]bipiperidinyl-1′-yl-1-(1H-indol-5-ylmethyl)-2-oxo-ethyl]-amide], the Kb in test [1] (setting [5]) came to 55 nM. The compound also came in with a slope in test [1] of 0.96. Also, the half-maximal inhibitory concentration (IC50) in test [2] (setting [6]) and in test [3] was 10 to 100 nM throughout. Further, the concentration giving a half-maximal response (EC50) in test [4] was in the range of 10 to 100 nM.

Turning to `O=C1Nc2ccccc2C2(CCN(C(=O)C[C@H](Cc3csc4ccccc34)C(=O)N3CCC(N4CCCCC4)CC3)CC2)O1` [Example 65], the results for the IC50 in test [2] (setting [6]) and in test [3] were 10 to 100 nM and below 10 nM, respectively. Also, the EC50 in test [4] lay within 10 to 100 nM.

Regarding `O=C(NC(Cc1ccc2[nH]ccc2c1)C(=O)N1CCC(N2CCCCC2)CC1)N1CCC(N2Cc3ccccc3NC2=O)CC1` (racemic) [Example 5, (±)-4-(2-Oxo-1,4-dihydro-2H-quinazolin-3-yl)-piperidine-1-carboxylic acid[2-[1,4′]bipiperidinyl-1′-yl-1-(1H-indol-5-ylmethyl)-2-oxo-ethyl]-amide], in test [1] (setting [5]), the Kb was 3 nM. The same compound came in with a slope in test [1] of 0.92. Besides, the IC50 in test [2] (setting [6]) and in test [3] was below 10 nM throughout.

In the case of `Cc1cc(CC(NC(=O)N2CCC3(CC2)NC(=O)Nc2ccccc23)C(=O)N2CCC(N3CCCCC3)CC2)cc2cn[nH]c12` (racemic) [Example 23, (±)-1-(7-Methyl-1H-indazol-5-ylmethyl)-2-[1,4-bipiperidin]-1-yl-2-oxoethyl]-2′,3′-dihydro-2′-oxospiro-[piperidine-4,4′-(1H)-quinazoline]-1-carboxamide], the IC50 in test [2] (setting [6]) and in test [3] was below 10 nM each time. Moreover, the EC50 in test [4] was below 10 nM.

On to `Cc1cc(CC(NC(=O)N2CCC(N3Cc4ccccc4NC3=O)CC2)C(=O)N2CCN(c3ccncc3)CC2)cc2cn[nH]c12` (racemic) [Example 21, (±)-4-(2-Oxo-1,4-dihydro-2H-quinazolin-3-yl)-piperidine-1-carboxylic acid[1-(7-methyl-1H-indazol-5-ylmethyl)-2-oxo-2-(4-pyridin-4-yl-piperazin-1-yl)-ethyl]-amide], for which, in test [1] (setting [5]), the Kb stood at 0.018 nM. The compound further yielded a slope in test [1] of 0.89. For the same compound, the IC50 in test [2] (setting [6]) and in test [3] was below 10 nM throughout. In test [4], the EC50 is below 10 nM.

The values above are taken from patent publication US7842808B2, “Anti-migraine spirocycles” (Bristol-Myers Squibb Company, priority 2002, dated 2010).
